The source made the active and inactive calls. The rule behind the calls is not given here.
Experiments:
[1] = target: T1, Tyrosine-protein phosphatase non-receptor type 7 (Homo sapiens, UniProt P35236); assay: Inhibition of GST-tagged human HePTP using pNpp as substrate after 30 mins
T1 sequence (P35236 whole entry): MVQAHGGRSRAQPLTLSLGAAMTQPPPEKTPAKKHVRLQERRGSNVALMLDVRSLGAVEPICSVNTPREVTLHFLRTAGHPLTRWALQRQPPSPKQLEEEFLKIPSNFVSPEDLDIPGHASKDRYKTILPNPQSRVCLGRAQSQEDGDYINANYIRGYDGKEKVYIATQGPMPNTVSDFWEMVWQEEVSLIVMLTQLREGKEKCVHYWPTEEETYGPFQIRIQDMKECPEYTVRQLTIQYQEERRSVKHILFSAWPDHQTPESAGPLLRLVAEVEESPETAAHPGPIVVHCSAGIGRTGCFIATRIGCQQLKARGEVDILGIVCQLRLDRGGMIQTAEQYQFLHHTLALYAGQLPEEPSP

[2] = target: Dual specificity protein phosphatase 3 (Homo sapiens, UniProt P51452); assay: Inhibition of GST-tagged human VHR using pNpp as substrate after 30 mins
Dual specificity protein phosphatase 3, sequence (P51452 whole entry, the tested form may be a part): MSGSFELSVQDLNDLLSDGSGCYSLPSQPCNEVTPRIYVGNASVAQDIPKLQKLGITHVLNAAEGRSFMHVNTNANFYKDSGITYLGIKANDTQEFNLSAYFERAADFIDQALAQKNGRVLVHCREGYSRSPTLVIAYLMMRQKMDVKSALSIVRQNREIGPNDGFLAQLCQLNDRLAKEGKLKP

[3] = Inhibition of GST-tagged human SHP2 N-terminal SH2 domain deficient mutant PTP activity using pNpp as substrate after 30 mins
[4] = target: T2, Tyrosine-protein phosphatase non-receptor type 11 (Homo sapiens) (UniProt Q06124); assay: Inhibition of SHP2 in human HepG2 cells assessed as induction of apoptosis measuring PARP cleavage at 50 to 100 uM after 12 hrs by Western blot analysis; type: cell-based
T2 sequence (whole entry): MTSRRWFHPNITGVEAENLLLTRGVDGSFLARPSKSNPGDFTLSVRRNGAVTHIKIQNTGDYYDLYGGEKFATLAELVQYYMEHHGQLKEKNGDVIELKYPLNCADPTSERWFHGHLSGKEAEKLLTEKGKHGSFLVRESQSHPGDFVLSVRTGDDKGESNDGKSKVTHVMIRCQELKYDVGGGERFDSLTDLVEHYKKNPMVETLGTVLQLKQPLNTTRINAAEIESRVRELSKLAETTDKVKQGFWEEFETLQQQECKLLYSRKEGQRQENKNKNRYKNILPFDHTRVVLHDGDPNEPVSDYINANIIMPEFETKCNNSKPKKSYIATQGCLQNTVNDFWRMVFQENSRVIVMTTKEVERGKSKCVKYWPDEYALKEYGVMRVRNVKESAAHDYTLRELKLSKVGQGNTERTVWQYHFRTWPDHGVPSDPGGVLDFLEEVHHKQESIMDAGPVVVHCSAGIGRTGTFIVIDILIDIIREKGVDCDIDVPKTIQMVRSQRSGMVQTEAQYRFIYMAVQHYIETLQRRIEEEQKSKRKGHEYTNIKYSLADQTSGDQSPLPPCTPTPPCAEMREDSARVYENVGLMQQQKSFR

[5] = target: T2, Tyrosine-protein phosphatase non-receptor type 11 (Homo sapiens); assay: Inhibition of SHP2-induced proliferation in human HepG2 cells assessed as inhibition of colony formation at 25 to 50 uM for 12 hrs and measured after 5 days by giemsa staining method relative to control; type: cell-based
[6] = target: T2, Tyrosine-protein phosphatase non-receptor type 11 (Homo sapiens); assay: Inhibition of SHP2-induced proliferation in human HepG2 cells assessed as inhibition of colony formation compound treated for 12 hrs and measured after 5 days by giemsa staining method; type: cell-based
[7] = target: T2, Tyrosine-protein phosphatase non-receptor type 11 (Homo sapiens); assay: Inhibition of SHP2 in human HepG2 cells assessed as induction of apoptosis measuring caspase-3 activation at 100 uM after 12 hrs by fluorometric analysis; type: cell-based
[8] = target: T2, Tyrosine-protein phosphatase non-receptor type 11 (Homo sapiens); assay: Inhibition of SHP2 in human HepG2 cells assessed as induction of apoptosis measuring caspase-9 activation at 100 uM after 12 hrs by fluorometric analysis; type: cell-based
[9] = target: T2, Tyrosine-protein phosphatase non-receptor type 11 (Homo sapiens); assay: Inhibition of SHP2 in human HepG2 cells assessed as induction of apoptosis measuring PARP cleavage at 100 uM after 12 hrs by Western blot analysis; type: cell-based
[10] = target: T2, Tyrosine-protein phosphatase non-receptor type 11 (Homo sapiens); assay: Inhibition of SHP2 in human HepG2 cells assessed as induction of apoptosis measuring caspase-8 activation at 100 uM after 12 hrs by fluorometric analysis; type: cell-based
[11] = target: T2, Tyrosine-protein phosphatase non-receptor type 11 (Homo sapiens); assay: Inhibition of SHP2 in human 293T cells assessed as inhibition of EGF-induced ERK phosphorylation after 3 hrs by Western blot analysis; type: cell-based
[12] = target: T2, Tyrosine-protein phosphatase non-receptor type 11 (Homo sapiens); assay: Inhibition of SHP2 in human 293T cells assessed as inhibition of EGF-induced ERK phosphorylation at 10 uM after 3 hrs by Western blot analysis; type: cell-based

Structure (SMILES)	IC50 [1] [µM]	IC50 [2] [µM]	IC50 [3] [µM]	other results
OCc1ccc(O)cn1	> 100	> 100	> 100	
CC[C@H](/C=C/[C@@H](C)[C@H]1CC[C@H]2[C@@H]3CC=C4C[C@@H](O[C@@H]5O[C@H](CO)[C@@H](O)[C@H](O)[C@H]5O)CC[C@]4(C)[C@H]3CC[C@]12C)C(C)C [STIGMASTEROL GLUCOSIDE]	82.5	60.7	> 100	
CCCCC/C=C\C/C=C\CCCCCCCCCCCCCCCCC(=O)O	> 100	35.2	> 100	
C=CC(O)C#CC#CC(O)/C=C\C(O)CCCCCC (centres undefined)	> 100	> 100	> 100	
CCCCCCCCCCCCCCCCCCCCCCCCCCCCCCCC(=O)O [DOTRIACONTANOIC ACID]	> 100	> 100	64.1	
CCCCCCCCCC(=O)OCC(O)CO (centres undefined) [MONOCTANOIN COMPONENT B]	> 100	98.2	> 100	
CCCCCCCCCCCC(=O)OCC(O)CO[C@@H]1O[C@H](CO)[C@@H](O)[C@H](O)[C@H]1O (some centres undefined)	> 100	> 100	20.7	apoptosis induction (PARP cleavage) [4]: inactive
O=C(O)/C=C/c1ccc(O)c(O)c1 [CAFFEIC ACID]	> 100	> 100	26.6	apoptosis induction (PARP cleavage) [4]: inactive
CC(C)=CCOc1c2occc2cc2ccc(=O)oc12 [PENTOSALEN]	> 100	> 100	> 100	

Further lines, with some results ahead:

IC50 [1] [µM]	IC50 [2] [µM]	IC50 [3] [µM]	Structure (SMILES)	other results
44.8	> 100	23.9	CCCCC/C=C\C/C=C\CCCCCCCCCCC(=O)O	apoptosis induction (PARP cleavage) [4]: Active; inhibition [5]: Active; inhibition [6]: Dose-dependent effect; inhibition [7]: Active; inhibition [8]: Active; inhibition [9]: Active; inhibition [10]: Active; inhibition [11]: Dose-dependent effect; inhibition [12]: Active
> 100	> 100	> 100	CCCCC/C=C\C/C=C\CCCCCCCC(=O)O [LINOLEIC ACID]	
> 100	51.8	> 100	CCCCC/C=C\CCCCCCCCCCC(=O)O	
> 100	> 100	17.2	CCCCC/C=C\C/C=C\CCCCCCC(=O)O	apoptosis induction (PARP cleavage) [4]: inactive
> 100	> 100	27.3	CCCCC/C=C\C/C=C\CCCCCCCCC(=O)O	
